Measurements as given in patent publication US20250296971A1, “GASTRIC INHIBITORY PEPTIDE RECEPTOR LIGANDS” (priority 2021, published 2025).
Where two headings read alike, the source gives them in different places. *1 amine or outer side, *2 acyl side, *3 side chain or, on linkers, in order; H or OH if unused. Where a SMILES comes first, the peptide text is derived from it. Bridges are numbered along the chain shown (N, C = ends). Side-chain parts run from the residue outwards. [ ]: non-standard residue; d: D form. The star is where a group is joined. NH(1-deoxy-D-glucityl) = OC[C@@H](O)[C@@H](O)[C@H](O)[C@@H](O)CN*; DOTA = O=C(O)CN1CCN(CC(=O)O)CCN(CC(=O)*)CCN(CC(=O)O)CC1; Trp(5-Cl) = N[C@@H](Cc1c[nH]c2ccc(Cl)cc12)C(=O)O; Pyridine(2,6-diCH2) = c1cc(C[*:1])nc(C[*:2])c1; mXylylene = c1cc(C[*:1])cc(C[*:2])c1; Glutaryl = O=C(CCCC(=O)[*:2])[*:1]; Hyp = O=C(O)[C@@H]1C[C@@H](O)CN1; X1 = O=C(CN1CCC(N[*:1])CC1)[*:2]; Api = NC1(C(=O)O)CCNCC1

What was measured:
[1] = target: Recombinant soluble human NEP (Homo sapiens, UniProt P08473); experiment: Proteolytic stability assay against NEP; settings: NEP 100 ng/mL, compound 10 μM, 37° C., % intact compound remaining
Sequence of Recombinant soluble human NEP (P08473 52-750 limits assumed): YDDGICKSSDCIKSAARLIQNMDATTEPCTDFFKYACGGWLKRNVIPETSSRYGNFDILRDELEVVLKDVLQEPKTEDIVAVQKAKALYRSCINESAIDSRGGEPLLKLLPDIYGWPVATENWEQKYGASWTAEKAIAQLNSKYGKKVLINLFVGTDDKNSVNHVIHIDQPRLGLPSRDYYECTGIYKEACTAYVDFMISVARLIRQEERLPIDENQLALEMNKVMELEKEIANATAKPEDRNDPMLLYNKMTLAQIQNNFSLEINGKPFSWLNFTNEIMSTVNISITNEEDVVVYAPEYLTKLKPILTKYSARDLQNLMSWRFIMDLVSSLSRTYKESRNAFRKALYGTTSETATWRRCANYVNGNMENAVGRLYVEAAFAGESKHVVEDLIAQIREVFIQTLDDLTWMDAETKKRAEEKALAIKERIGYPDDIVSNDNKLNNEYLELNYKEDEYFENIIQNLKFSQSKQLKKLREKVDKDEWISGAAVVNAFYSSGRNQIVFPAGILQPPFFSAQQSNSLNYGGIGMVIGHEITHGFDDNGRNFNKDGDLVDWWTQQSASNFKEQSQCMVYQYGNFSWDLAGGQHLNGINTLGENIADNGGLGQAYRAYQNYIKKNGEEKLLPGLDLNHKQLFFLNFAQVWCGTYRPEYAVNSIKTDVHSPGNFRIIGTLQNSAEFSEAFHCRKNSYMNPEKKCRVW

[2] = target: T1, GIPR (CHO-K1-hGIPR cells) (Homo sapiens, UniProt P48546); experiment: FACS binding assay
T1 construct: host or cells: CHO-K1
T1 sequence (P48546 22-466): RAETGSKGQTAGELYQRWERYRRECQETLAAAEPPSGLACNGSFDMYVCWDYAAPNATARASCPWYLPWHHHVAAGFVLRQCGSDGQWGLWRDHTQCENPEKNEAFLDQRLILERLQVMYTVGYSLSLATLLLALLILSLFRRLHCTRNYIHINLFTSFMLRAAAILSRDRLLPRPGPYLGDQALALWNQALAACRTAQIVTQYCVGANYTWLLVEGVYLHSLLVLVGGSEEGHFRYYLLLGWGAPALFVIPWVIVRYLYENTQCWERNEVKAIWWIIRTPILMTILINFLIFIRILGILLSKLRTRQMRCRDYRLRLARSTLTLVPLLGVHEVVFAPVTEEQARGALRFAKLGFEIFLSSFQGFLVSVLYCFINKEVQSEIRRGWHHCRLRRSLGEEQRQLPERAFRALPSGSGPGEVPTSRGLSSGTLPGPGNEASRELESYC
Summary of the method: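 CHO-K1 cells expressing human GIPR, washed in PBS/1% FCS, then stained with 1 μg/mL APC-streptavidin for 30 min on ice.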

[3] = Plasma stability assay, mouse plasma; format: in vitro ADME; settings: 37° C., % intact compound remaining after 4 h or 24 h
Description: (§1) In order to determine the stability of selected compounds of the invention in human and mouse plasma, a plasma stability assay was carried out. Such plasma stability assay measures degradation of compounds of the present invention in blood plasma. This is an important characteristic of a compound as compounds, with the exception of pro-drugs, which rapidly degrade in plasma, generally show poor in vivo efficacy. […] The stability is sufficient for the diagnostic, therapeutic and theragnostic use of these compounds according to the present invention.
(§2) The plasma stability samples were prepared by spiking 50 μL plasma aliquots (all K2EDTA) with 1 μL of a 0.5 mM compound stock solution in DMS0. After vortexing the samples were incubated in a Thermomixer at 37° C. for 0, 4 and 24 hours. After incubation the samples were stored on ice until further treatment. All samples were prepared in duplicates.
(§3) A suitable internal standard was added to each sample (1 μL of a 0.5 mM stock solution in DMSO). Protein precipitation was performed by addition of 250 μL of acetonitrile containing 1% trifluoroacetic acid. After incubation at room temperature for 30 min the precipitate was separated by centrifugation and 150 μL of the supernatant was diluted with 150 μL of 1% aqueous formic acid.
(§4) Additionally, recovery was determined by spiking a pure plasma sample that only contained the internal standard after treatment with a certain amount of the compound.
(§5) Carry-over was evaluated by analysis of a blank sample (20% acetonitrile) after the highest calibration sample.

[4] = Plasma stability assay, human plasma; format: in vitro ADME; settings: 37° C., % intact compound remaining after 4 h or 24 h
Description: as §1, §2, §3, §4, §5

[5] = competition with 20 nM GIP-057, 4° C., 1 hour, read-out: pIC50 Category (converted)
[6] = competition with 20 nM GIP-057, 4° C. for 1 hour, read-out: pIC50 Category (converted)

Compound | IC50 [2, 5] | Mouse plasma stability category [3] | Human plasma stability category [4] | IC50 [2, 6] | NEP stability category [1] | IC50 ([2]; pIC50 Category, competition with 20 nM GIP-057, 4° C., 1 hour)
CC[C@H](C)[C@@H]1NC(=O)[C@H](CC(C)C)NC(=O)C2(CCN(C(=O)CCCC(=O)NC[C@H](O)[C@@H](O)[C@H](O)[C@H](O)CO)CC2)NC(=O)[C@@H](NC(=O)[C@@H](CC(C)C)NC(=O)[C@H](CCC(=O)O)NC(=O)[C@@H]2C[C@@H](O)CN2C(=O)[C@H](Cc2c[nH]c3ccc(Cl)cc23)NC(=O)[C@H](Cc2c[nH]c3ccccc23)NC(=O)[C@H](CC(=O)O)NC(=O)CN2CCC(NC(=O)[C@@H](CCC(=O)NC[C@H](O)[C@@H](O)[C@H](O)[C@H](O)CO)NC(=O)CN3CCN(CC(=O)O)CCN(CC(=O)O)CCN(CC(=O)O)CC3)CC2)CSCc2cccc(n2)CSC[C@@H](C(=O)NC2CCN(CC(=O)N[C@H](CCC(=O)NC[C@H](O)[C@@H](O)[C@H](O)[C@H](O)CO)C(N)=O)CC2)NC1=O [GIP-003, DOTA-glu(AGLU)-APAc-Asp-Trp-5Clw-Hyp-Glu-leu-[Cys(2Lut)-Apc(AGLU-Glutar)-Leu-Ile-Cys]-APAc-glu(AGLU)-NH2] ({DOTA}-[dE](NH(1-deoxy-D-glucityl))[X1]DW[Trp(5-Cl)][Hyp]E[dL]C[Api]([Glutaryl-NH(1-deoxy-D-glucityl)])LIC[X1][dE](NH(1-deoxy-D-glucityl))-NH2; linker 9-13 via Pyridine(2,6-diCH2)) | < 10 nM | – | – | – | A (>80% intact after 24 hours) | –
CC[C@H](C)[C@@H]1NC(=O)[C@H](CC(C)C)NC(=O)[C@H](C)NC(=O)[C@@H](NC(=O)[C@H](CC(C)C)NC(=O)[C@H](CCC(=O)O)NC(=O)[C@@H]2CCCN2C(=O)[C@H](Cc2c[nH]c3ccccc23)NC(=O)[C@H](Cc2c[nH]c3ccccc23)NC(=O)[C@H](CC(=O)O)NC(=O)[C@H](Cc2ccc(O)cc2)NC(C)=O)CSCc2cccc(c2)CSC[C@@H](C(N)=O)NC1=O [GIP-240, Ac-Tyr-Asp-Trp-Trp-Pro-Glu-Leu-[Cys(3MeBn)-Ala-Leu-Ile-Cys]-NH2] (Ac-YDWWPELCALIC-NH2; linker 8-12 via mXylylene) | 10 to 79.4 nM | B (>80% intact after 4 hours) | B (>80% intact after 4 hours) | – | – | –
CC[C@H](C)[C@@H]1NC(=O)[C@H](CC(C)C)NC(=O)C2(CCN(C(=O)CN3CCN(CC(=O)O)CCN(CC(=O)O)CCN(CC(=O)O)CC3)CC2)NC(=O)[C@@H](NC(=O)[C@@H](CC(C)C)NC(=O)[C@H](CCC(=O)O)NC(=O)[C@@H]2C[C@@H](O)CN2C(=O)[C@H](Cc2c[nH]c3ccc(Cl)cc23)NC(=O)[C@H](Cc2c[nH]c3ccccc23)NC(=O)[C@H](CC(=O)O)NC(=O)CN2CCC(NC(=O)CCOCCOCCOCCOCCOCCOCCOCCOCCOCCOCCOCCOCCOCCOCCOCCOCCOCCOCCOCCOCCOCCOCCOCCOCCOCCOCCOCCOCCOCCOCCOCCOCCOCCOCCOCCOCCOC)CC2)CSCc2cccc(n2)CSC[C@@H](C(=O)N[C@H](CCC(=O)NC[C@H](O)[C@@H](O)[C@H](O)[C@H](O)CO)C(N)=O)NC1=O [GIP-040, Me036PEG-APAc-Asp-Trp-5Clw-Hyp-Glu-leu-[Cys(2Lut)-Apc(DOTA)-Leu-Ile-Cys]-glu(AGLU)-NH2] | – | – | – | – | A (>80% intact after 24 hours) | 10 to 79.4 nM
CC[C@H](C)[C@@H]1NC(=O)[C@H](CC(C)C)NC(=O)[C@H]([C@@H](C)O)NC(=O)[C@@H](NC(=O)[C@H](CC(C)C)NC(=O)[C@H](CCC(=O)O)NC(=O)[C@@H]2CCCN2C(=O)[C@H](Cc2c[nH]c3ccccc23)NC(=O)[C@H](Cc2c[nH]c3ccccc23)NC(=O)[C@H](CC(=O)O)NC(=O)[C@H](Cc2ccc(O)cc2)NC(=O)[C@@H](N)CCSC)CSCc2cccc(c2)CSC[C@@H](C(N)=O)NC1=O [GIP-242] (H-MYDWWPELCTLIC-NH2; linker 9-13 via mXylylene) | 10 to 79.4 nM | C (≥50% intact after 4 hours) | B (>80% intact after 4 hours) | – | – | –
CC[C@H](C)[C@@H]1NC(=O)[C@H](CC(C)C)NC(=O)[C@H](CCC(N)=O)NC(=O)[C@@H](NC(=O)[C@H](CC(C)C)NC(=O)[C@H](CCC(=O)O)NC(=O)[C@@H]2CCCN2C(=O)[C@H](Cc2c[nH]c3ccccc23)NC(=O)[C@H](Cc2c[nH]c3ccccc23)NC(=O)[C@H](CC(=O)O)NC(=O)[C@H](Cc2ccc(O)cc2)NC(=O)[C@@H](N)CCSC)CSCc2cccc(c2)CSC[C@@H](C(N)=O)NC1=O [GIP-241] (H-MYDWWPELCQLIC-NH2; linker 9-13 via mXylylene) | 10 to 79.4 nM | C (≥50% intact after 4 hours) | B (>80% intact after 4 hours) | – | – | –

More lines, main results first:

IC50 [2, 5] | Mouse plasma stability category [3] | Human plasma stability category [4] | IC50 [2, 6] | Compound | NEP stability category [1] | IC50 ([2]; pIC50 Category, competition with 20 nM GIP-057, 4° C., 1 hour)
– | D (<50% intact after 4 hours) | C (≥50% intact after 4 hours) | 10 to 79.4 nM | CC[C@H](C)[C@@H]1NC(=O)[C@H](CC(C)C)NC(=O)[C@H](C)NC(=O)[C@@H](NC(=O)[C@@H](CC(C)C)NC(=O)[C@H](CCC(=O)O)NC(=O)[C@@H]2CCCN2C(=O)[C@H](Cc2c[nH]c3ccccc23)NC(=O)[C@H](Cc2c[nH]c3ccccc23)NC(=O)[C@H](CC(=O)O)NC(=O)[C@H](Cc2ccc(O)cc2)NC(=O)[C@@H](N)CCSC)CSCc2cccc(c2)CSC[C@@H](C(N)=O)NC1=O [GIP-247, H-Met-Tyr-Asp-Trp-Trp-Pro-Glu-leu-[Cys(3MeBn)-Ala-Leu-Ile-Cys]-NH2] (H-MYDWWPE[dL]CALIC-NH2; linker 9-13 via mXylylene) | – | –
– | B (>80% intact after 4 hours) | B (>80% intact after 4 hours) | 10 to 79.4 nM | CC[C@H](C)[C@@H]1NC(=O)[C@H](CC(C)C)NC(=O)[C@H](C)NC(=O)[C@@H](NC(=O)[C@H](CC(C)C)NC(=O)[C@H](CCC(=O)O)NC(=O)[C@@H]2CCCN2C(=O)[C@H](Cc2c[nH]c3ccccc23)NC(=O)[C@H](Cc2c[nH]c3ccccc23)NC(=O)[C@H](CC(=O)O)NC(=O)[C@@H](Cc2ccc(O)cc2)NC(=O)[C@@H](N)CCSC)CSCc2cccc(c2)CSC[C@@H](C(N)=O)NC1=O [GIP-246, H-Met-tyr-Asp-Trp-Trp-Pro-Glu-Leu-[Cys(3MeBn)-Ala-Leu-Ile-Cys]-NH2] (H-M[dY]DWWPELCALIC-NH2; linker 9-13 via mXylylene) | – | –
– | D (<50% intact after 4 hours) | B (>80% intact after 4 hours) | 10 to 79.4 nM | CC[C@H](C)[C@@H]1NC(=O)[C@H](CC(C)C)NC(=O)[C@@H](C)NC(=O)[C@@H](NC(=O)[C@H](CC(C)C)NC(=O)[C@H](CCC(=O)O)NC(=O)[C@@H]2CCCN2C(=O)[C@H](Cc2c[nH]c3ccccc23)NC(=O)[C@H](Cc2c[nH]c3ccccc23)NC(=O)[C@H](CC(=O)O)NC(=O)[C@H](Cc2ccc(O)cc2)NC(=O)[C@@H](N)CCSC)CSCc2cccc(c2)CSC[C@@H](C(N)=O)NC1=O [GIP-248] (H-MYDWWPELC[dA]LIC-NH2; linker 9-13 via mXylylene) | – | –
– | D (<50% intact after 4 hours) | B (>80% intact after 4 hours) | 10 to 79.4 nM | CC[C@H](C)[C@@H]1NC(=O)[C@H](CC(C)C)NC(=O)[C@H](C)NC(=O)[C@@H](NC(=O)[C@H](CC(C)C)NC(=O)[C@@H](CCC(=O)O)NC(=O)[C@@H]2CCCN2C(=O)[C@H](Cc2c[nH]c3ccccc23)NC(=O)[C@H](Cc2c[nH]c3ccccc23)NC(=O)[C@H](CC(=O)O)NC(=O)[C@H](Cc2ccc(O)cc2)NC(=O)[C@@H](N)CCSC)CSCc2cccc(c2)CSC[C@@H](C(N)=O)NC1=O [GIP-245, H-Met-Tyr-Asp-Trp-Trp-Pro-glu-Leu-[Cys(3MeBn)-Ala-Leu-Ile-Cys]-NH2] (H-MYDWWP[dE]LCALIC-NH2; linker 9-13 via mXylylene) | – | –
